{
  "source": "patent US20230051797A1",
  "about": "“METHOD FOR RECOVERING EXTRACELLULAR VESICLE AND BLOOD COLLECTION VESSEL” (FUJIREBIO INC., priority 2019, published 2023)",
  "key": {"[1]": {"system": "human whole blood", "assay": "Confirmation of presence and absence of hemolysis in whole blood with surfactant (Example 2)", "method": "A surfactant was added to human whole blood for confirmation of presence and absence of hemolysis. […] Octyltrimethylammonium bromide (C8TAB) and hexadecyltrimethylammonium chloride (C16TAC) were used as cationic surfactants. N-decanoyl sarcosine sodium (N-DSS (NDS)) and N-lauroyl sarcosine sodium hydrate (NLS) were used as anionic surfactants. As amphoteric surfactants, CHAPS and N-dodecyl-N,N-dimethyl-3-ammonio-l-propanesulfonate (C12APS) were used.\nMore specifically, 900 μL of whole blood obtained after blood collection was added to the 5 mL polypropylene test tube (manufactured by nunc) containing 100 μL of D-PBS (-) supplemented with the surfactant. The surfactant was added to achieve a final concentration of 0.5 W/V % after mixed with whole blood. After the addition of whole blood, the test tubes were inverted for mixing, and allowed to stand at room temperature for 30 minutes. After centrifugation (3000 rpm, 5 minutes), the supernatant was collected for visual check of the presence and absence of hemolysis."}, "[2]": {"system": "CD9, the surface marker protein of extracellular vesicle (EV)", "assay": "Recovery of EV from whole blood supplemented with chelating agent and surfactant (CD9 in supernatant, Example 3)", "set-up": "species or system human", "settings": "chelating agent 60 mM", "description": "To 0.01 g/mL of magnetic particles in 10 mM MES buffer (pH 5.0), 0.2 mg/mL of a mouse anti-CD9 monoclonal antibody (Fujirebio Inc.) that recognizes an extracellular vesicle (EV) surface marker CD9, was added. Then, the resulting solution was gently stirred at 25° C. for one hour for incubation. After the reaction, the magnetic particles were magnetically collected and washed with a washing solution (50 mM Tris buffer, 150 mM NaCl2, 2.0% BSA, pH 7.2) in order to obtain anti-CD9 antibody solid-phased particles. Each antibody solid-phased particle was suspended in a particle diluent (50 mM Tris buffer, 1 mM EDTA-2Na, 0.1% NaN3, 2.0% BSA, pH 7.2) in order to obtain each antibody solid-phased particle solution. […]\nThe chelating agent and the surfactant were added to human whole blood. CD9 was measured in the supernatant after centrifugation. […]"}, "[3]": {"system": "CD9, the surface marker protein of the extracellular vesicle (EV)", "assay": "Recovery of EV from whole blood with chelating agent (CD9 measured in supernatant, Example 1)", "set-up": "species or system human", "settings": "chelating agent final concentration 15 mM in whole blood", "description": "The chelating agent was added to human whole blood. After centrifugation, CD9 in the supernatant was measured. […]"}, "[4]": {"system": "CD9, the surface marker protein of extracellular vesicle (EV)", "assay": "Study of action of chelating agent and surfactant on whole blood or on immune reaction (CD9, Example 5)", "set-up": "species or system human", "settings": "for vs. no EGTA (%): 100 mM EGTA in particle solution vs none", "method": "(§1) To 0.01 g/mL of magnetic particles in 10 mM MES buffer (pH 5.0), 0.2 mg/mL of a mouse anti-CD9 monoclonal antibody (Fujirebio Inc.) that recognizes an extracellular vesicle (EV) surface marker CD9, was added. Then, the resulting solution was gently stirred at 25° C. for one hour for incubation. After the reaction, the magnetic particles were magnetically collected and washed with a washing solution (50 mM Tris buffer, 150 mM NaCl2, 2.0% BSA, pH 7.2) in order to obtain anti-CD9 antibody solid-phased particles. Each antibody solid-phased particle was suspended in a particle diluent (50 mM Tris buffer, 1 mM EDTA-2Na, 0.1% NaN3, 2.0% BSA, pH 7.2) in order to obtain each antibody solid-phased particle solution.\n(§2) Desalted alkaline phosphatase (ALP) was mixed with N-(4-maleimidobutyryloxy)-succinimide (GMBS) (final concentration 0.3 mg/mL) and the resulting solution was allowed to stand at 30° C. for one hour for maleimidation of ALP. Next, in a coupling reactant solution (100 mM phosphate buffer, 1 mM EDTA-2Na, pH 6.3), Fab's of mouse anti-CD9 monoclonal antibody was mixed with maleimidized ALP at a molar ratio of 1: 1, and reacted at 25° C. for one hour. The reactant solution was subjected to purification using Superdex 200 column chromatography (General Electric Company) to obtain ALP-labeled anti-CD9 antibody. Each ALP-labeled antibody was suspended in a labeled antibody diluent (50 mM MES buffer, 150 mM NaCl2, 0.3 mM ZnCl2, 1 mM MgCl2, 0.1% NaN3, 2.0% BSA, pH 6.8) to obtain each labeled antibody solution.\n20 μL of the sample for measurement and 50 μL of the anti-CD9 antibody solid-phased particle solution were dispensed into the reaction vessel and stirred. Then, the resulting solution was incubated at 37° C. for 8 minutes (primary reaction), and B/F separation and washing were carried out. 50 μL of the ALP-labeled antibody was dispensed into the reaction vessel, the resulting solution was stirred and then incubated at 37° C. for 8 minutes, and B/F separation and washing were carried out. Then, 200 μL of Lumipulse (registered trademark) substrate solution (Fujirebio Inc.) containing 3-(2′-spiroadamantane)-4-methoxy-4-(3″-phosphoryloxy)phenyl-1,2-dioxetane disodium salt (AMPPD) serving as a chemiluminescent substance was dispensed into the reaction chamber. The resulting solution was stirred and then incubated at 37° C. for 4 minutes for the measurement of luminescence intensity using luminometer. A count value was obtained as the measured value. The luminescence intensity was measured using a fully automated chemiluminescent enzyme immunoassay system (Lumipulse L2400 (Fujirebio Inc.)). […]\nIn addition, CD9 was measured also for a solution obtained by adding 100 mM EGTA to the CD9 antibody solid-phased particle solution. […]"}, "[5]": {"system": "CD9, the surface marker protein of extracellular vesicle (EV)", "assay": "Study of concentrations of chelating agent and surfactant (CD9 in supernatant, Example 4)", "set-up": "species or system human", "settings": "Tergitol 15-S-40 0%", "method": "as §1, §2\n20 μL of the sample for measurement and 50 μL of the anti-CD9 antibody solid-phased particle solution were dispensed into the reaction vessel and stirred. Then, the resulting solution was incubated at 37° C. for 8 minutes (primary reaction), and B/F separation and washing were carried out. 50 μL of the ALP-labeled antibody was dispensed into the reaction vessel, the resulting solution was stirred and then incubated at 37° C. for 8 minutes, and B/F separation and washing were carried out. Then, 200 μL of Lumipulse (registered trademark) substrate solution (Fujirebio Inc.) containing 3-(2′-spiroadamantane)-4-methoxy-4-(3″-phosphoryloxy)phenyl-1,2-dioxetane disodium salt (AMPPD) serving as a chemiluminescent substance was dispensed into the reaction chamber. The resulting solution was stirred and then incubated at 37° C. for 4 minutes for the measurement of luminescence intensity using luminometer. A count value was obtained as the measured value. The luminescence intensity was measured using a fully automated chemiluminescent enzyme immunoassay system (Lumipulse L2400 (Fujirebio Inc.)).\nAntibodies recognizing the same epitope in CD9 were used as the antibody solid-phased on the magnetic particle and the ALP-labeled antibody. Due to the presence of a plurality of CD9 on a single extracellular vesicle, it is possible to measure for the extracellular vesicle presenting a plurality of CD9 to be indicated as the surface marker rather than free CD9 by means of the sandwich immunoassay in which the antibodies recognizing the same epitope as the solid-phased antibodies were used as the ALP-labeled antibodies.\nVarious concentrations of the chelating agent and the surfactant were added to human whole blood, for the measurement of CD9 in the supernatant obtained after centrifugation. […]"}, "[6]": {"system": "CD9, the surface marker protein of extracellular vesicle (EV)", "assay": "Study of surfactant type in combination with EGTA (CD9 in supernatant, Example 6)", "set-up": "species or system human", "settings": "EGTA 200 mM, no surfactant (D-PBS(-))", "method": "as §1, with “solution. […]” for “solution.”\n20 μL of the sample for measurement and 50 μL of the anti-CD9 antibody solid-phased particle solution were dispensed into the reaction vessel and stirred. […] The resulting solution was stirred and then incubated at 37° C. for 4 minutes for the measurement of luminescence intensity using luminometer. A count value was obtained as the measured value. The luminescence intensity was measured using a fully automated chemiluminescent enzyme immunoassay system (Lumipulse L2400 (Fujirebio Inc.)). […]"}, "[7]": {"settings": "surfactant final 0.5 W/V % in whole blood, visual check of supernatant"}},
  "note": "Where two headings read alike, the source gives them in different places.",
  "data": [
    {"smiles": "CCCCCCCCCCCC[N+](C)(C)CCCS(=O)(=O)[O-]", "note": "[C12APS, N-dodecyl-N,N-dimethyl-3-ammonio-l-propanesulfonate]", "values": [
      {"measurement": "Hemolysis, Specimen 1", "setting": "[1]; [7]", "value": "Hemolysis"},
      {"measurement": "Hemolysis, Specimen 2", "setting": "[1]; [7]", "value": "Hemolysis"}
    ]},
    {"smiles": "CCCCCCCCCCCCCCCC[N+](C)(C)C.[Cl-]", "note": "[C16TAC, hexadecyltrimethylammonium chloride]", "values": [
      {"measurement": "Hemolysis, Specimen 1", "setting": "[1]; [7]", "value": "Hemolysis"},
      {"measurement": "Hemolysis, Specimen 2", "setting": "[1]; [7]", "value": "Hemolysis"}
    ]},
    {"smiles": "C[C@H](CCC(=O)NCCC[N+](C)(C)CCCS(=O)(=O)[O-])[C@H]1CC[C@H]2[C@@H]3[C@H](O)C[C@@H]4C[C@H](O)CC[C@]4(C)[C@H]3C[C@H](O)[C@]12C", "note": "[CHAPS]", "values": [
      {"measurement": "Hemolysis, Specimen 1", "setting": "[1]; [7]", "value": "Hemolysis"},
      {"measurement": "Hemolysis, Specimen 2", "setting": "[1]; [7]", "value": "Hemolysis"}
    ]},
    {"smiles": "O=C(O)CN(CCN(CC(=O)O)CC(=O)O)CC(=O)O.[Na].[Na]", "note": "[EDTA2Na, disodium ethylenediaminetetraacetic acid]", "values": [
      {"measurement": "vs. No chelating agent and surfactant added (%)", "setting": "[2]", "value": 196.6, "unit": "%"},
      {"measurement": "vs. non-addition (%)", "setting": "[3]", "value": 376.6, "unit": "%"}
    ]},
    {"smiles": "O=C(O)CN(CCOCCOCCN(CC(=O)O)CC(=O)O)CC(=O)O", "note": "[EGTA, glycol ether diamine tetraacetic acid]", "values": [
      {"measurement": "vs. no EGTA (%)", "setting": "[4]; blood collection vessel: 200 mM EGTA, 0% Tergitol", "value": 112.9, "unit": "%"},
      {"measurement": "vs. no EGTA (%)", "setting": "[4]; blood collection vessel: nothing added", "value": 71, "unit": "%"},
      {"measurement": "vs. non-addition (%)", "setting": "[4]; blood collection vessel: 200 mM EGTA, 0% Tergitol, particle solution: 100 mM EGTA + 0.5% Tergitol", "value": 843.5, "unit": "%"},
      {"measurement": "vs. non-addition (%)", "setting": "[4]; blood collection vessel: 200 mM EGTA, 0% Tergitol, particle solution: 0.5% Tergitol", "value": 530.5, "unit": "%"},
      {"measurement": "CD9 vs. 0 mM EGTA (%)", "setting": "[5]; EGTA 10 mM", "value": 154, "unit": "%"},
      {"measurement": "CD9 vs. 0% Tergitol (%)", "setting": "[5]; EGTA 50 mM", "value": 294, "unit": "%"},
      {"measurement": "CD9 vs. 0 mM EGTA (%)", "setting": "[5]; EGTA 50 mM", "value": 294, "unit": "%"},
      {"measurement": "CD9 vs. 0 mM EGTA (%)", "setting": "[5]; EGTA 100 mM", "value": 532, "unit": "%"},
      {"measurement": "CD9 vs. 0 mM EGTA (%)", "setting": "[5]; EGTA 200 mM", "value": 721, "unit": "%"},
      {"measurement": "vs. non-addition", "setting": "[6]", "value": 366.4},
      {"measurement": "vs. No chelating agent and surfactant added (%)", "setting": "[2]", "value": 332.6, "unit": "%"},
      {"measurement": "vs. non-addition (%)", "setting": "[3]", "value": 215, "unit": "%"}
    ]},
    {"smiles": "O=C(O)CN(CCO)CCN(CC(=O)O)CC(=O)O", "note": "[HEDTA, hydroxyethyl ethylenediaminetriacetic acid]", "values": [
      {"measurement": "vs. non-addition (%)", "setting": "[3]", "value": 963.9, "unit": "%"}
    ]},
    {"smiles": "CCCCCCCCCC(=O)N(C)CC(=O)O.[Na]", "note": "[N-DSS (NDS), N-decanoyl sarcosine sodium]", "values": [
      {"measurement": "Hemolysis, Specimen 1", "setting": "[1]", "value": "Hemolysis"},
      {"measurement": "Hemolysis, Specimen 2", "setting": "[1]", "value": "Hemolysis"}
    ]},
    {"smiles": "CCCCCCCCCCCC(=O)N(C)CC(=O)O.O.[Na]", "note": "[NLS, N-lauroyl sarcosine sodium hydrate]", "values": [
      {"measurement": "Hemolysis, Specimen 1", "setting": "[1]", "value": "Hemolysis"},
      {"measurement": "Hemolysis, Specimen 2", "setting": "[1]", "value": "Hemolysis"}
    ]},
    {"smiles": "O=C(O)CN(CC(=O)O)CC(=O)O", "note": "[NTA, nitrilotriacetic acid]", "values": [
      {"measurement": "vs. non-addition (%)", "setting": "[3]", "value": 427.7, "unit": "%"}
    ]}
  ]
}
